In assay [1] the test system is human acute monocytic leukemia cell line MV-4-11. Briefly: Assay 2 (Cell Proliferation Assay), ATP quantitation (CellTiter-Glo). It counts as cell-based. The following applies: Homo sapiens, MV4-11, 72 h, MV-4-11 cells, read-out: Assay 2 (EC50, inhibition of cell proliferation). The protocol:
Potencies of inhibitor compounds against cell proliferation was assessed against the human acute monocytic leukemia cell line MV-4-11 (ATCC® CRL-9591™) based on ATP quantitation. MV-4-11 cells or toxicity control HL-60 cells (ATCC® CCL-240™) were incubated in 96-well tissue culture plates (1.67×10^4 cells in 200 μL culture media containing 10% FBS per well) with or without test compound for 72 h at 37° C., 5% CO2. After incubation, each well was mixed by pipetting and 95 μL from each well was transferred to a well in 96-well black OptiPlate® plates (PerkinElmer). An equal volume of CellTiter-Glo® Luminescent Cell Viability Assay reagent (Promega) was added to each well, followed by mixing for 5 min on an orbital plate shaker. Luminescence was measured on a Wallac EnVision 2104 Multilabel Reader (PerkinElmer) to quantitate ATP. Percent inhibition of cell proliferation by test compounds was calculated based on uninhibited cell growth (DMSO) versus cells treated with a potent menin inhibitor at a concentration yielding at least 100×LD50.
In general terms: Cellular ATP, detected with luciferase, serves as a proxy for viable cell number.

The target in assay [2] is T1, menin/MLL binding (biotinylated wild-type or mutated menin and MLL-AF9 fusion protein) (Homo sapiens, UniProt O00255).
T1 construct: biotinylated (1) wild-type menin or (2) mutated menin (described in Nature (2012) Vol. 482, pp. 542-548); fused on or other part: Biotin attached chemically (Sulfo-NHS-Biotin); no fused second protein is printed for menin
T1 sequence (O00255 1-459 limits assumed): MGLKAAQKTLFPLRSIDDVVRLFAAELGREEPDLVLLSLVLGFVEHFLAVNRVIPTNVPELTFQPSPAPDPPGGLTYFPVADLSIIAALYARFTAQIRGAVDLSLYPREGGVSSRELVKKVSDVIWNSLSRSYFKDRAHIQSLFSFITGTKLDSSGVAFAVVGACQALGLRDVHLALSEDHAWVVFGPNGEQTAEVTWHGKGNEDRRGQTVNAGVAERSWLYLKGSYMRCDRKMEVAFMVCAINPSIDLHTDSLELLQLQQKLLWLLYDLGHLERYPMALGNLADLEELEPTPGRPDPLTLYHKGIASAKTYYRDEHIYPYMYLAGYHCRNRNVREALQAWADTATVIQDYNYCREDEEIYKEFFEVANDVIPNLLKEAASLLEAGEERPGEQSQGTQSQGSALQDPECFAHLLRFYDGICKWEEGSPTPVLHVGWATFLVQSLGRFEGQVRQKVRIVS
Briefly: Assay 1 (Binding Assay): AlphaLISA menin/MLL binding. As to conditions: 5 nM biotinylated menin, MLL-AF9-FLAG lysate. The method in brief:
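Biotinylated E. coli-expressed menin (wild-type or mutant), 5 nM, incubated 30 min RT with compound and HEK293 lysate of MLL1-1,396–AF9-FLAG in pH 7.4 Tris buffer, 5% DMSO, 1 mM DTT. Anti-FLAG acceptor and streptavidin donor beads added, 60 min RT, AlphaLISA signal read. IC50 from four-parameter fit of % inhibition.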

SMILES strings stand for the structures.

On to `CCN(C(=O)c1cc(F)ccc1-n1cc(C2CCCN(Cc3ccc4c(c3)[nH]c(=O)n4CCO)C2)c2ccncc21)C(C)C` (stereo not shown) [Example 49, N-ethyl-5-fluoro-2-(3-(1-((1-(2-hydroxyethyl)-2-oxo-2,3-dihydro-1H-benzo[d]imidazol-5-yl)methyl)piperidin-3-yl)-1H-pyrrolo[2,3-c]pyridin-1-yl)-N-isopropylbenzamide], for which the EC50 in assay [1] is under 100 nM. For the same compound, the IC50 in assay [2] was under 100 nM.
For the compound `CC(C)N(C)C(=O)c1cc(F)ccc1-n1cc(C2CCN(Cc3ccc4[nH]c(=O)[nH]c4c3)C2)c2ccncc21` (stereo not shown) [Example 122, 5-fluoro-N-isopropyl-N-methyl-2-(3-(1-((2-oxo-2,3-dihydro-1H-benzo[d]imidazol-5-yl)methyl)pyrrolidin-3-yl)-1H-pyrrolo[2,3-c]pyridin-1-yl)benzamide], the EC50 in assay [1] was under 100 nM. The compound also gave an IC50 in assay [2] of under 100 nM.
For `CC(C)N(C)C(=O)c1cc(F)ccc1-n1cc(C2CCCN(C[C@H]3CC[C@H](NS(C)(=O)=O)CC3)CC2)c2ccncc21` (relative stereo) [Example 41, 5-fluoro-N-isopropyl-N-methyl-2-(3-(1-((trans-4-(methylsulfonamido)cyclohexyl)methyl)azepan-4-yl)-1H-pyrrolo[2,3-c]pyridin-1-yl)benzamide], the EC50 in assay [1] is under 100 nM. The same compound displayed a 50% inhibitory concentration (IC50) in assay [2] of under 100 nM.
For the compound `CC(C)N(C)C(=O)c1cc(F)ccc1-n1cc(C2CCN(Cc3ccc4c(c3)[nH]c(=O)n4CCO)C2)c2ccncc21` (stereo not shown) [Example 123, 5-fluoro-2-(3-(1-((1-(2-hydroxyethyl)-2-oxo-2,3-dihydro-1H-benzo[d]imidazol-5-yl)methyl)pyrrolidin-3-yl)-1H-pyrrolo[2,3-c]pyridin-1-yl)-N-isopropyl-N-methylbenzamide], the EC50 in assay [1] is under 100 nM. In assay [2], this compound returned a 50% inhibitory concentration (IC50) of under 100 nM.
Turning to `CC(C)N(C)C(=O)c1cc(F)ccc1-n1cc(C2CCN(CCc3ccc(S(C)(=O)=O)cc3)CC2)c2ccncc21` [Example 24, 5-fluoro-N-isopropyl-N-methyl-2-(3-(1-(4-(methylsulfonyl)phenethyl)piperidin-4-yl)-1H-pyrrolo[2,3-c]pyridin-1-yl)benzamide], the EC50 in assay [1] lay in the range of 100 to 1000 nM. Moreover, the IC50 in assay [2] is under 100 nM.
For `CC(C)N(C)C(=O)c1cc(F)ccc1-n1cc([C@H]2CC[C@H](N3CCC[C@@H]3CO)CC2)c2ccncc21` [Example 100, 5-fluoro-2-(3-(trans-4-((R)-2-(hydroxymethyl)pyrrolidin-1-yl)cyclohexyl)-1H-pyrrolo[2,3-c]pyridin-1-yl)-N-isopropyl-N-methylbenzamide], in that order: 100 to 1000 nM and under 100 nM.
In the case of `CC(C)N(C)C(=O)c1cc(F)ccc1-n1cc(C2CCCN(CC3CCCCC3)C2)c2ccncc21` (stereo not shown) [Example 46, 2-(3-(1-(cyclohexylmethyl)piperidin-3-yl)-1H-pyrrolo[2,3-c]pyridin-1-yl)-5-fluoro-N-isopropyl-N-methylbenzamide], in assay [1], the EC50 fell in the range of 100 to 1000 nM. This compound also came in with an IC50 in assay [2] of under 100 nM.
For `Cc1c(CN2CCC(n3c(=O)n(-c4ccc(F)cc4C(=O)N(C)C(C)C)c4cnccc43)CC2)ccc2[nH]c(C#N)cc12` [Example 82, 2-(1-(1-((2-cyano-4-methyl-1H-indol-5-yl)methyl)piperidin-4-yl)-2-oxo-1,2-dihydro-3H-imidazo[4,5-c]pyridin-3-yl)-5-fluoro-N-isopropyl-N-methylbenzamide], in assay [1], the EC50 was under 100 nM. In assay [2], this compound came in with a concentration for half-maximal inhibition (IC50) of under 100 nM.
Regarding `CC(C)N(C)C(=O)c1cc(F)ccc1-n1cc(C2CCN(C[C@H]3CC[C@H](O)CC3)CC2)c2ccncc21` [Example 27, trans-(5-fluoro-2-(3-(1-((4-hydroxycyclohexyl)methyl)piperidin-4-yl)-1H-pyrrolo[2,3-c]pyridin-1-yl)-N-isopropyl-N-methylbenzamide)], the EC50 in assay [1] was at least 1000 nM. Moreover, the IC50 in assay [2] was under 100 nM.
For `CC(C)N(C)C(=O)c1cc(F)ccc1-n1cc(C2CCN(Cc3ccc(C#N)cc3)CC2)c2ccncc21` [Example 12, 2-(3-(1-(4-cyanobenzyl)piperidin-4-yl)-1H-pyrrolo[2,3-c]pyridin-1-yl)-5-fluoro-N-isopropyl-N-methylbenzamide], in that order: 100 to 1000 nM and under 100 nM.
For `CC(C)N(C(=O)c1cc(F)ccc1-n1cc(C2CCCN(Cc3ccc4[nH]c(=O)[nH]c4c3)C2)c2ccncc21)C(C)C` (stereo not shown) [Example 84A, 5-fluoro-N,N-diisopropyl-2-(3-(1-((2-oxo-2,3-dihydro-1H-benzo[d]imidazol-5-yl)methyl)piperidin-3-yl)-1H-pyrrolo[2,3-c]pyridin-1-yl)benzamide] the same measures were under 100 nM and under 100 nM.
With `CCN(C(=O)c1cc(F)ccc1-n1cc(C2CCCN(Cc3ccc4[nH]c(=O)[nH]c4c3)C2)c2ccncc21)C(C)C` (stereo not shown) [Example 47, N-ethyl-5-fluoro-N-isopropyl-2-(3-(1-((2-oxo-2,3-dihydro-1H-benzo[d]imidazol-5-yl)methyl)piperidin-3-yl)-1H-pyrrolo[2,3-c]pyridin-1-yl)benzamide], the EC50 in assay [1] is under 100 nM. In assay [2], this compound displayed a concentration for half-maximal inhibition (IC50) of under 100 nM.
For `Cc1nnc(C2CC2)n1-c1cc(F)ccc1-n1cc(C2CCCN(Cc3ccc4[nH]c(=O)[nH]c4c3)C2)c2ccncc21` (stereo not shown) [Example 121, 5-((3-(1-(2-(3-cyclopropyl-5-methyl-4H-1,2,4-triazol-4-yl)-4-fluorophenyl)-1H-pyrrolo[2,3-c]pyridin-3-yl)piperidin-1-yl)methyl)-1H-benzo[d]imidazol-2(3H)-one], in assay [1], the EC50 is under 100 nM. Moreover, the IC50 in assay [2] is under 100 nM.
With `CC(C)N(C)C(=O)c1cc(F)ccc1-n1cc(C2CCN(CCc3ccc(C(C)(C)C#N)cc3)CC2)c2ccncc21` [Example 29, 2-(3-(1-(4-(2-cyanopropan-2-yl)phenethyl)piperidin-4-yl)-1H-pyrrolo[2,3-c]pyridin-1-yl)-5-fluoro-N-isopropyl-N-methylbenzamide], the EC50 in assay [1] was 100 to 1000 nM. The same compound yielded a half-maximal inhibitory concentration (IC50) in assay [2] of under 100 nM.
As for `CC(C)N(C)C(=O)c1cc(F)ccc1-n1cc([C@H]2CC[C@@H](N3CC(CO)C3)CC2)c2ccncc21` [Example 99, 5-fluoro-2-(3-(cis-4-(3-(hydroxymethyl)azetidin-1-yl)cyclohexyl)-1H-pyrrolo[2,3-c]pyridin-1-yl)-N-isopropyl-N-methylbenzamide], the IC50 in assay [2] was 100 to 1000 nM.
Same read-out and setting: the value for `CC(C)N(C)C(=O)c1cc(F)ccc1-n1cc([C@H]2CC[C@H](N3CCC(O)CC3)CC2)c2ccncc21` [Example 108, 5-fluoro-2-(3-(trans-4-(4-hydroxypiperidin-1-yl)cyclohexyl)-1H-pyrrolo[2,3-c]pyridin-1-yl)-N-isopropyl-N-methylbenzamide] was 100 to 1000 nM; that for `CC(C)N(C)C(=O)c1cc(F)ccc1-n1c(=O)n(C2CCN(Cc3ccc4[nH]c(=O)[nH]c4c3)CC2)c2ccncc21` [Example 79, 5-fluoro-N-isopropyl-N-methyl-2-(2-oxo-1-(1-((2-oxo-2,3-dihydro-1H-benzo[d]imidazol-5-yl)methyl)piperidin-4-yl)-1,2-dihydro-3H-imidazo[4,5-c]pyridin-3-yl)benzamide] was at least 1000 nM; that for `CC(C)N(C)C(=O)c1cc(F)ccc1-n1cc([C@H]2CC[C@@H](N3CCC[C@H]3CO)CC2)c2ccncc21` [Example 97, 5-fluoro-2-(3-(cis-4-((S)-2-(hydroxymethyl)pyrrolidin-1-yl)cyclohexyl)-1H-pyrrolo[2,3-c]pyridin-1-yl)-N-isopropyl-N-methylbenzamide] was under 100 nM.
For the compound `CC(C)N(C)C(=O)c1cc(F)ccc1-n1cc(C2CCC(N3CCNC(=O)C3)CC2)c2ccncc21` (stereo not shown) [Example 116, 5-fluoro-N-isopropyl-N-methyl-2-(3-(4-(3-oxopiperazin-1-yl)cyclohexyl)-1H-pyrrolo[2,3-c]pyridin-1-yl)benzamide], the IC50 in assay [2] is 100 to 1000 nM.
Same read-out and setting: the value for `CC(C)N(C)C(=O)c1cc(F)ccc1-n1cc(C2CCN(C)CC2)c2ccncc21` [Example 17, 5-fluoro-N-isopropyl-N-methyl-2-(3-(1-methylpiperidin-4-yl)-1H-pyrrolo[2,3-c]pyridin-1-yl)benzamide] was 100 to 1000 nM.

Broadly, the IC50 is the concentration that gives 50% inhibition.

Source of the values: patent publication US10899758B2, “Inhibitors of the menin-MLL interaction” (Vitae Pharmaceuticals, LLC, priority 2016, dated 2021).
